Here are results for 42 molecules from PubChem BioAssay (NCI).

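A five-concentration, 48-hour dose response in 96-well plates underlies each endpoint, interpolated linearly between surrounding concentrations. At the GI50, growth is halved. TGI marks complete inhibition of growth.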

For the assay, the system named is MDA-MB-468 breast. The experiment in a line: growth of human tumour cells (NCI), 48 h.
On to `C[CH2][Pb]([CH2]C)([CH2]C)[O]C(=O)COc1ccccc1`, for which the GI50 was 0.23 µM and the TGI is 0.659 µM.

Consider `CCCCCCCC(=O)SCC/C=C/[C@@H]1CC(=O)NCc2cccc(n2)CN(Cc2ccc3ccccc3c2)CC(=O)N[C@@H](C(C)C)C(=O)O1`, for which the GI50 was 33.3 µM and the TGI was greater than 100 µM.

In the case of `Cc1cc(Nc2ccc3c(c2)OCO3)c2cc3c(cc2n1)OCO3`, the GI50 is 0.519 µM and the TGI is 15 µM.

Turning to `C=C1C(=O)O[C@H]2[C@H]1CC/C(COC(=O)CCSSCCC(=O)OC/C1=C/CC[C@@]3(C)O[C@H]3[C@H]3OC(=O)C(=C)[C@@H]3CC1)=C\CC[C@@]1(C)O[C@@H]21`, the GI50 was 0.543 µM and the TGI was determined as 2.28 µM.

As for `O=C(Nc1ccc(-c2nc(-c3cccc(O)c3)c(-c3ccnc(Br)c3)[nH]2)cc1)c1ccccc1`, the GI50 is 1.91 µM and the TGI was found to be 4.74 µM.

On to `O=C1N[C@@H]2[C@@H](O)[C@@H](O)[C@H](O)C[C@H]2c2cc3c(c(O)c21)OCO3`, for which the GI50 was 0.058 µM and the TGI was found to be 0.298 µM.

With `Cc1nn(CCO)c(C)c1N=[N+]([O-])c1c(C)nn(CCO)c1C`, the GI50 is 2.84 µM and the TGI turned out to be 15.8 µM.

With `Cc1ccc(NC2=N[C@]34CC(=O)CC[C@]3(C)[C@H]3CC[C@]5(C)C(=O)CC[C@H]5[C@@H]3C[C@@H]4S2)c(C)c1`, the GI50 was 1.93 µM and the TGI came to 3.93 µM.

`N#CC1=C(N)Oc2c(ccc3ccccc23)C1c1cccs1` (stereo not drawn): the GI50 is 0.0375 µM and the TGI turned out to be 13.7 µM.

As for `N#Cc1c(Br)n(C2OC(CO)C(O)C2O)c2ncn3ccnc3c12` (stereo not drawn), the GI50 is 35.2 µM and the TGI was greater than 100 µM.

With `O=C(Nc1ccc([As]=[As]c2ccc(NC(=O)c3ccccc3)cc2)cc1)c1ccccc1` (stereo not drawn), the GI50 was 0.152 µM and the TGI turned out to be 0.324 µM.

With `Cc1cc(Oc2ccccc2)ccc1Nc1ncnc2ccc(-c3cnc(Cl)c(NS(C)(=O)=O)c3)cc12`, the GI50 was 1.04 µM and the TGI was 3.33 µM.

For `CN(C)CCCn1c2c(c3ccc(-c4ccn[nH]4)cc3c1=O)C(=O)c1ccccc1-2`, the GI50 was 7.84 µM and the TGI is 24 µM.

Consider `O=CN/N=C/c1ccc(Cl)c([N+](=O)[O-])c1`, for which the GI50 is 0.127 µM and the TGI was 4.26 µM.

On to `CC1(C)CC[C@]2(C(N)=O)CC[C@]3(C)C(=CC[C@@H]4[C@@]5(C)C/C(=C/c6cccnc6)C(=O)C(C)(C)[C@@H]5CC[C@]43C)[C@@H]2C1`, for which the GI50 is 3.2 µM and the TGI is greater than 100 µM.

Turning to `O=S(=O)(Nc1ccc(Cl)cc1)c1ccc(-c2cnc(C3CC3)o2)cc1`, the GI50 was 0.368 µM and the TGI was 6.01 µM.

For `COc1cc(-c2csc(NC(=O)Nc3ccc(Cl)c(C(F)(F)F)c3)n2)cc(OC)c1OC`, the GI50 is 0.775 µM and the TGI worked out at 3.85 µM.

`OCc1ccc(N(Cc2ccc(F)cc2)CC2CC2)cc1Cl`: the GI50 is 0.0189 µM and the TGI was 0.0686 µM.

On to `Oc1cccc(-c2nc(-c3n[nH]c(=S)n3-c3ccccc3)cc3c2[nH]c2ccccc23)c1`, for which the GI50 is 2.54 µM and the TGI turned out to be 7.41 µM.

For `CCOC(=O)c1nnn(-c2no[n+]([O-])c2-c2ccc(OC)cc2)c1COc1cccc2cccnc12`, the GI50 was 2.61 µM and the TGI is 7.99 µM.

On to `Cc1cc(N(CCNc2ccnc3cc(Cl)ccc23)Cc2cccs2)nc(Cl)n1`, for which the GI50 was 1.22 µM and the TGI stood at 2.7 µM.

`O=c1ccc2nc(C(F)(F)F)nn(-c3ccccc3)c-2c1`: the GI50 was 1.06 µM and the TGI is 2.98 µM.

Consider `CCCN(CCC)c1ccc(CO)c(Cl)c1`, for which the GI50 was 0.0469 µM and the TGI turned out to be 0.199 µM.

Take `CC(C)C[C@H](NC(=O)Cn1ccc(Nc2ccccc2)cc1=O)B(O)O`: the GI50 was 0.423 µM and the TGI is 5.88 µM.

Take `ClCCn1cnc2c(SCc3ccccc3Cl)ncnc21`: the GI50 is 9.76 µM and the TGI came to 67.6 µM.

Consider `O=C(CCCCN1CCOCC1)Nc1ccc(Cn2nnc3c2C(=O)c2nnn(Cc4ccc(NC(=O)CCCCN5CCOCC5)cc4)c2C3=O)cc1`, for which the GI50 was 0.103 µM and the TGI was 0.261 µM.

For the molecule `CC(=O)N1CCC(Nc2cc(C(=O)NC[C@H](O)CN3CCc4ccccc4C3)ncn2)CC1`, the GI50 is greater than 100 µM and the TGI was greater than 100 µM.

On to `CCCC(=O)NC(c1ccc(N(CC)CC)cc1)c1cc(C)c2cccnc2c1O` (stereo not drawn), for which the GI50 is 0.386 µM and the TGI turned out to be 1.96 µM.

For the molecule `C=C1C(=O)O[C@H]2[C@H]1CC/C(COC(=O)CCCC(=O)OC/C1=C/CC[C@@]3(C)O[C@H]3[C@H]3OC(=O)C(=C)[C@@H]3CC1)=C\CC[C@@]1(C)O[C@@H]21`, the GI50 was 1.51 µM and the TGI is 5.3 µM.

Turning to `O=C(N/N=C/c1c(Cl)cccc1Cl)c1cccnc1Nc1cccc(C(F)(F)F)c1`, the GI50 is 0.951 µM and the TGI is 9.27 µM.

`C(=C1c2ccccc2-c2ccccc21)c1ccncc1`: the GI50 is 2.28 µM and the TGI came out at 6.64 µM.

For `N#Cc1c(-c2ccc(Cl)cc2)nc(SCc2ccccc2)nc1N1CCNCC1`, the GI50 was 1.71 µM and the TGI came out at 3.46 µM.

Turning to `CN(C)CCCNCc1ccc(-c2ccc(F)c(Cl)c2)o1`, the GI50 is 8.92 µM and the TGI was 23.4 µM.

For the molecule `C=CC(=O)N1C[C@H](COc2nc(Nc3cnn(C)c3)nc3[nH]cc(Cl)c23)[C@@H](OC)C1`, the GI50 is 0.445 µM and the TGI is 2.59 µM.

Consider `O=Cc1cn(Cc2ccc(Cl)cc2)c2ccccc12`, for which the GI50 was 0.022 µM and the TGI was found to be 0.0801 µM.

Regarding `C[C@]12CCC(=O)CC1CC[C@@H]1C2CC[C@@]2(C)C1CC[C@@H]2OC(=O)CC[Se][Se]CCC(=O)O[C@H]1CCC2[C@@H]3CCC4CC(=O)CC[C@]4(C)C3CC[C@@]21C` (stereo partly drawn), the GI50 is 2.1 µM and the TGI came out at 5.06 µM.

Regarding `COc1ccc2c(c1)NC(=O)CN2c1nc(NC2CC2)nc2ccccc12`, the TGI is 3.75 µM.

For the molecule `Cc1ccc(Cl)cc1-c1nc(N)nc(Nc2ccc(Br)cc2)n1`, the GI50 is 0.175 µM and the TGI was 0.614 µM.

On to `O=C(Nc1cccc(Cl)c1)Nc1nccs1`, for which the GI50 was 8.83 µM and the TGI came out at 89.5 µM.

With `C=C1C(=O)O[C@H]2[C@H]1CC/C(COC(=O)/C=C\C(=O)NCc1ccc(Cn3c(=O)sn(CCCI)c3=O)cc1)=C\CC[C@@]1(C)O[C@@H]21`, the GI50 is 0.519 µM and the TGI is 1.19 µM.

In the case of `C[n+]1c2ccccc2c(Nc2ccc(N3CCCCC3)cc2)c2[nH]c3ccccc3c21`, the GI50 was 0.153 µM and the TGI stood at 0.401 µM.

`CCOC(=O)/C=C1/SC(N2CCCCC2)C(=O)N1CC` (stereo not drawn): the GI50 was greater than 100 µM and the TGI was greater than 100 µM.
